Where “and” joins values, the source holds several entries; their conditions need not be identical. Identical values can stand only once.

One assay concerns the target T1, GR (Homo sapiens, UniProt P04150).
T1 sequence (P04150 1-777): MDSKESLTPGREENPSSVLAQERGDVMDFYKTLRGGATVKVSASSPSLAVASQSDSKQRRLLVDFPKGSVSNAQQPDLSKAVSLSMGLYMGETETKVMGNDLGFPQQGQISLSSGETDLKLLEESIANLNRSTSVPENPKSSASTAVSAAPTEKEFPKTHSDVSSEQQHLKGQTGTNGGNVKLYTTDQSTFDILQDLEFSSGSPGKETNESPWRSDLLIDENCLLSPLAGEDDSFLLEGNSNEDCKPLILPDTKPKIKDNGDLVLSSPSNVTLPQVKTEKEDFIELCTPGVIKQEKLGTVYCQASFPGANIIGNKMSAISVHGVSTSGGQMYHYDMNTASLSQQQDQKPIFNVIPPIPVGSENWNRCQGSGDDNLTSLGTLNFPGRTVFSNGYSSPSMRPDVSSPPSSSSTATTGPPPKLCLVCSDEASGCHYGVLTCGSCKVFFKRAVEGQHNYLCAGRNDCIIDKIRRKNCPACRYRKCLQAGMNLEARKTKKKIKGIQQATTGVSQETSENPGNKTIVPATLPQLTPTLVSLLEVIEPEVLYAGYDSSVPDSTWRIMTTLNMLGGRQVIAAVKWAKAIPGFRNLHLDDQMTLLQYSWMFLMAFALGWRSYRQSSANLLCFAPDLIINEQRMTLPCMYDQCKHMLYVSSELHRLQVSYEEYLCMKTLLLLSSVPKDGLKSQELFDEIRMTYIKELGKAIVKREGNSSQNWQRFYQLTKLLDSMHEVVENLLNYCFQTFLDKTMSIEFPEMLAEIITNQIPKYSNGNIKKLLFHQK
The experiment in a line: Competitive binding, full length human glucocorticoid receptor. Set-up: made in house; host or cells: HI (Hi5) insect cells, baculovirus; cellular lysate. As for the experimental part:
(§1) The study aimed to characterize the competitive binding profile of EC313 to relevant human nuclear receptors. For the assays, commercially available ‘ligand binding domain’ proteins were purchased (Thermo Fisher Scientific). In addition, the full-length receptor proteins were expressed in transfected HI insect cells using the `Bac-to-bac Baculovirus expression system´ (Thermo Fisher Scientific). Cellular lysates served as receptor preparation. Receptor protein preparations were incubated with tritiated reference ligands and EC313 or reference steroids at concentrations between 0.1 and 1000 nM for 2h at 4°C to reach equilibrium. Subsequently, unbound steroids were adsorbed to dextran-coated charcoal (Sigma Aldrich), separated by filtration, and the remaining radioactivity was quantified in a ß-counter (Perkin Elmer). Displacement curves were fitted using the GraphPad Prism 7 free version to obtain EC50 values. Relative binding affinity (RBA [%], (C50ref/C50test)*100) and the competition coefficient (C50test/C50ref) were used to describe the relative binding potency of EC313 compared to the reference ligands.

Another assay relates to pregnant guinea pigs. The experiment in a line: Abortive activity in pregnant guinea pigs. Format: in vivo, guinea pig. Conditions: 30 mg/animal/day s.c., pregnancy days 43 and 44. How it is done: In female animals, the second day of vaginal opening in the mating cycle was defined as day 1 of pregnancy (pregnancy length approx. 62 days). They were treated on days 43 and 44 by subcutaneous (s.c.) injection of the proprietary compounds EC312, EC313, EC323, and EC328 as well as UPA. All tested compounds were synthesized in Evestra Inc. The dose levels administered were 3, 10, and 30 mg/animal/day. The external genital organs were inspected for the presence of vaginal bleeding and fetal membranes (twice daily). The presence of expelled fetuses and placentae in the cages was also recorded at each inspection.
The animals were sacrificed on day 50 using CO2. Both uterine horns were dissected and their contents were inspected. Fresh corpora lutea (CL) were evidence of a recent ovulation.

The next assay concerns the target T2, human Erα (Homo sapiens, UniProt P03372).
T2 construct: host or cells: CHO, transient co-transfection
The experiment in a line: ERα transactivation (CHO, ERE-LUC). Format: cell-based. As for the experimental part:
The CHO cell line was selected to express estrogen α and β protein and the gene expression under the tested compounds stimulation was analyzed. The co-transfection with vector encoding the human full-length steroid receptors hERα and hERβ and reporter vector ERE/LUC was performed. Transient and stable transfectants with protein overexpression were induced by tested compounds (17β-estradiol or EC313) or the mixture: estradiol and appropriate range of concentration of EC313. Agonist and antagonist properties of EC313 toward tested receptor ERα and ERβ were analyzed using luminescence detection.
Plasmid included vectors coding sequences for the receptor as well as the reporter gene. […]
The ability of EC313 to agonize and/or antagonize ER receptor expression was analyzed in the following test system: co-transfected CHO cells were stimulated with estradiol (0.009 nM - 1200 nM) and EC313 (0.009 nM - 1200 nM) for detection agonistic activity. The antagonistic activity was assessed during the competitive interaction between EC313 (0.009 nM - 1200nM) and an appropriate concentration of estradiol (see Table 3 ). […] After incubating the cells for 24h with the tested compounds, the luminescent signal generated by the luciferase activity was detected.

Assay [1] has as its system human progesterone receptor (full length, PRA). In words: Competitive binding, full length human progesterone receptor. The settings on record: compared to progesterone. As for the experimental part:
as §1

T2 sequence (P03372 whole entry): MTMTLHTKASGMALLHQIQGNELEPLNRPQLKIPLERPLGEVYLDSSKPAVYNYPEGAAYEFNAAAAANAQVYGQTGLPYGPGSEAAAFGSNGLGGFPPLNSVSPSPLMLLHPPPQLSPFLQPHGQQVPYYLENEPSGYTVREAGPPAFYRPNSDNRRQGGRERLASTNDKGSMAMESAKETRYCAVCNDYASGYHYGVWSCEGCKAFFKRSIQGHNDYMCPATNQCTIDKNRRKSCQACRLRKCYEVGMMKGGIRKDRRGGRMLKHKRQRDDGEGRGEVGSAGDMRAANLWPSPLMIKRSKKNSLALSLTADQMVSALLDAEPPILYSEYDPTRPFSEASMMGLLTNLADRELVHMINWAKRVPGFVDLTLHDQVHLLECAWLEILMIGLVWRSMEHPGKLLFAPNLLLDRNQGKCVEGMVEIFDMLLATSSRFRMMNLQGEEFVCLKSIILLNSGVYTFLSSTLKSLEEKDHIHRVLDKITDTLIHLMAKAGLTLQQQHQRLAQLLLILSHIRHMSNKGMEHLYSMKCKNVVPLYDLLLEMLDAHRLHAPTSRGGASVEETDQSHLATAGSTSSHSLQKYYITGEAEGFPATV

The IC50 is the concentration that inhibits the measured activity by half. The low end stands for inhibition by little substance, the high end for a need for much substance. On to `C[C@]12C[C@H](c3ccc(-c4ccoc4)cc3)C3=C4CCC(=O)C=C4CC[C@H]3[C@@H]1CC[C@]21OCCC1=C(F)F` [EC313], for which the “Comp. Coefficient” value on GR (EC313 relative to Dexamethasone) is 12 and 11.8. Moreover, the IC50 at GR (tritiated ligand displacement) was 226 ± 9 nM. Besides, the “expulsion of uterine contents / fetal expulsions (animals)” value with pregnant guinea pigs is on record as “No fetal expulsions”. Besides, on human Erα, the “agonistic or antagonistic activity” value is on record as “no agonistic or antagonistic activity”. The compound further had a competition coefficient in assay [1] of 3.4.

(Values after PMC10520499, “Next step in the development of mesoprogestins: the preclinical profile of EC313” (Frontiers in Endocrinology, 2023).)
